{
  "source": "patent US11061034B2",
  "about": "“Blood biomarker for use in evaluation of effect of drug therapy on kidney cancer” (PUBLIC UNIVERSITY CORPORATION YOKOHAMA CITY UNIVERSITY, priority 2015, dated 2021)",
  "system": "kidney cancer",
  "assay": "Kidney cancer activity by FDG PET/CT during mTOR inhibitor therapy",
  "type": "in vivo, human",
  "experimental": "A change in blood PARK7 concentration was observed during treatment in four patients with kidney cancer who began to receive administration of mTOR inhibitor. The blood PARK7 concentration was measured as a concentration of plasma PARK7 with the commercially available ELISA kit in the same manner as in 1, described above, and the change in blood PARK7 level was evaluated by comparing values detected by a luminometer. The therapeutic effect of the mTOR inhibitor was clinically evaluated by FDG PET/CT. Kidney cancer progression was evaluated by FDG PET/CT, in parallel with the measurement of blood PARK7 concentration. FDG is an agent composed of glucose and a positron-emitting nuclide introduced thereto, and it has almost the same behavior in the body as glucose. […] The SUVmax values indicated below the respective images are semi-quantified values of FDG accumulation.",
  "data": [
    {"molecule": "CO[C@H]1C[C@@H]2CC[C@@H](C)[C@@](O)(O2)C(=O)C(=O)N2CCCC[C@H]2C(=O)O[C@H]([C@H](C)C[C@@H]2CC[C@@H](OC(=O)C(C)(CO)CO)[C@H](OC)C2)CC(=O)[C@H](C)/C=C(\\C)[C@@H](O)[C@@H](OC)C(=O)[C@H](C)C[C@H](C)/C=C/C=C/C=C/1C", "note": "[Temsirolimus]", "values": [
      {"measurement": "accumulation of FDG (PET/CT)", "setting": "patient with kidney cancer, Case No. 4 (one case)", "result": "no change in accumulation of FDG"},
      {"measurement": "accumulation of FDG (PET/CT)", "setting": "patients with kidney cancer, Case Nos. 1 to 3 (three cases)", "result": "decreased accumulation of FDG"}
    ]}
  ]
}
